PMC10222328 (Pharmaceuticals, 2023)

Experiments:
5-LOX = biological target: T1, 5-LOX (Homo sapiens, UniProt P09917); assay: Fluorometric 5-LOX inhibitor screening kit; assay type: biochemical; conditions: mean ± standard error of two measurements; for inhibition at 10 µM: read-out: 5-LOX Percent of Inhibition
T1 construct: purchased Abcam, UK
T1 sequence (P09917 1-674): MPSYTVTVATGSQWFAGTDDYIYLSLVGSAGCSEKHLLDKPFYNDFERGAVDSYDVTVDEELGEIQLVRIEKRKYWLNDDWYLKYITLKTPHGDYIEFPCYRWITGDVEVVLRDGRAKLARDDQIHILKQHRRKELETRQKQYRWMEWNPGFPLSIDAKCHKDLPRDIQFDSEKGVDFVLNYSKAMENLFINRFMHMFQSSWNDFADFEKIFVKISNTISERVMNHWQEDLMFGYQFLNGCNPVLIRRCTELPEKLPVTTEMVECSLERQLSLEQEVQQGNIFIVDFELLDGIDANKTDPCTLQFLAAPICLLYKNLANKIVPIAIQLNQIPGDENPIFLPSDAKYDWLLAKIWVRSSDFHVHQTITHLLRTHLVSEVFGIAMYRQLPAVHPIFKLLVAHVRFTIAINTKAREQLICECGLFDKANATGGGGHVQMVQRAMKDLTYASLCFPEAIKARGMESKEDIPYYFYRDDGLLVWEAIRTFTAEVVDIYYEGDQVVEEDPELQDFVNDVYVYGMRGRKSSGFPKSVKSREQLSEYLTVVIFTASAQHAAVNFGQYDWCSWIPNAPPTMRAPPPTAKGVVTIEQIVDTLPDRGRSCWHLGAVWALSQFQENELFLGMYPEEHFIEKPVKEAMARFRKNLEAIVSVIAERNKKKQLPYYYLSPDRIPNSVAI
Method: (§1) COX-2 and 5-LOX inhibitory activities were tested using fluorometric COX-2 and 5-LOX inhibitor screening kits (Abcam, UK). These assays are based on the fluorometric detection of Prostaglandin G2 (a product generated by the COX enzyme) or on the fluorometric detection of intermediate generated by the 5-LOX enzyme. The experiments were conducted according to the manufacturers’ instructions.
(§2) For the determination of COX-2 inhibitory activity, tested compounds were dissolved in DMSO (5 mM stock solutions) and then diluted with the same solvent to obtain test solutions. Test solutions were further diluted 5X with COX assay buffer (2 µL of test solution and 8 µL COX assay buffer). […] Solvent control (SC) was prepared by adding 2 µL DMSO and 8 µL COX assay buffer, while sample (S) and enzyme control (EC) were prepared by adding 10 µL of diluted test solution and COX assay buffer, respectively, into assigned wells. For the determination of 5-LOX inhibitory activity, tested compounds were also dissolved in DMSO to prepare stock solutions with the same concentration (5mM), which were then diluted with the same solvent to obtain test solutions. Subsequently, test solutions were added to corresponding wells (2 µL).

[1] = test system: carrageenan-induced rat paw edema; assay: Carrageenan-induced rat paw edema model; assay type: in vivo, Wistar albino rats; conditions: for Rat paw thickness: mean ± SD; for inhibition in vivo at 2.5 mg/kg / inhibition in vivo at 5 mg/kg / inhibition in vivo at 10 mg/kg: Rattus norvegicus, po
Method: In vivo assessment of anti-inflammatory activity of compounds 1–7 was conducted in the carrageenan-induced rat paw edema model. Inflammation in all rats was induced by an intraplantar injection of […] of 0.5% carrageenan saline in the left hind paw. Two hundred male Wistar albino rats (180–210 g) were divided into seven experimental (n = 168 rats, 8 rats per subgroup) and two control groups (n = 32 rats, 8 rats per subgroup).
Experimental groups involved rats that received compounds 1–7, and they were divided into three subgroups: rats received compounds 1–7 per os in three doses (2.5 mg/kg, 5 mg/kg, and 10 mg/kg) dissolved in 1% DMSO for 60 min before inducing inflammation.
In order to quantify the anti-inflammatory effect, the thickness of the left paw tissue of each rat was measured at the following time intervals: immediately before inducing inflammation (moment 0) and 1, 2, 3, and 4 h (moments 1, 2, 3, and 4) after inflammation. Tissue thickness was measured in the middle of the rat paw using a digital vernier caliper (Aerospace, Beijing, China).

COX-2 = biological target: T2, COX-2 (Homo sapiens, UniProt P35354); assay: Fluorometric COX-2 inhibitor screening kit; assay type: biochemical; conditions: at 10 µM; mean ± standard error of two measurements; read-out: COX-2 Percent of Inhibition
T2 construct: purchased Abcam, UK
T2 sequence (P35354 18-604): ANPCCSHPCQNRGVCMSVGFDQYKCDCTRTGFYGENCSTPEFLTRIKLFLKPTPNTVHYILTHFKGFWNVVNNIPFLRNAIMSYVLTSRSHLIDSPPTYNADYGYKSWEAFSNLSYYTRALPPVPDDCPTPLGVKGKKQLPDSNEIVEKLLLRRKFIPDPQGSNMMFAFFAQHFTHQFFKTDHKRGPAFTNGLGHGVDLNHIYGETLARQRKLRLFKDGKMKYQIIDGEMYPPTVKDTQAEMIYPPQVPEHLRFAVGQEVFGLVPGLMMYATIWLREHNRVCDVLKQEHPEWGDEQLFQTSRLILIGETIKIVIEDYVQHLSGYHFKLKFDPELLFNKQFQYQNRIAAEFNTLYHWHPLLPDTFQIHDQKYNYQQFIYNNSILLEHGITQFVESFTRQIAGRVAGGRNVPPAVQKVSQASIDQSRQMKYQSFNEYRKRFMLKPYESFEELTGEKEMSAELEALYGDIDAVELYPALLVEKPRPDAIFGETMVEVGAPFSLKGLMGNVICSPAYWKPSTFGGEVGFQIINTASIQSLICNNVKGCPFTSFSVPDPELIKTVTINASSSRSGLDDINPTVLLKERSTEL
Method: as §1, §2

[2] = 2.5 mg/kg per os, 1 h after carrageenan
[3] = 2.5 mg/kg per os, 2 h after carrageenan
[4] = 2.5 mg/kg per os, 3 h after carrageenan
[5] = 2.5 mg/kg per os, 4 h after carrageenan
[6] = 5.0 mg/kg per os, 1 h after carrageenan
[7] = 5.0 mg/kg per os, 2 h after carrageenan
[8] = 5.0 mg/kg per os, 3 h after carrageenan
[9] = 5.0 mg/kg per os, 4 h after carrageenan
[10] = 10.0 mg/kg per os, 1 h after carrageenan
[11] = 10.0 mg/kg per os, 2 h after carrageenan
[12] = 10.0 mg/kg per os, 3 h after carrageenan
[13] = 10.0 mg/kg per os, 4 h after carrageenan
[14] = 1 h, 2.5 mg/kg per os, 1 h after carrageenan
[15] = 1 h, 5.0 mg/kg per os, 1 h after carrageenan
[16] = 1 h, 10.0 mg/kg per os, 1 h after carrageenan
[17] = 2 h, 2.5 mg/kg per os, 2 h after carrageenan
[18] = 2 h, 5.0 mg/kg per os, 2 h after carrageenan
[19] = 2 h, 10.0 mg/kg per os, 2 h after carrageenan
[20] = 3 h, 2.5 mg/kg per os, 3 h after carrageenan
[21] = 3 h, 5.0 mg/kg per os, 3 h after carrageenan
[22] = 3 h, 10.0 mg/kg per os, 3 h after carrageenan
[23] = 4 h, 2.5 mg/kg per os, 4 h after carrageenan
[24] = 4 h, 5.0 mg/kg per os, 4 h after carrageenan
[25] = 4 h, 10.0 mg/kg per os, 4 h after carrageenan

Compound	inhibition at 10 µM (5-LOX) [%]	IC50 (5-LOX) [µM]	Rat paw thickness [1, 2] [mm]	Rat paw thickness [1, 3] [mm]	Rat paw thickness [1, 4] [mm]	Rat paw thickness [1, 5] [mm]	Rat paw thickness [1, 6] [mm]	Rat paw thickness [1, 7] [mm]	Rat paw thickness [1, 8] [mm]	Rat paw thickness [1, 9] [mm]	Rat paw thickness [1, 10] [mm]	Rat paw thickness [1, 11] [mm]	Rat paw thickness [1, 12] [mm]	Rat paw thickness [1, 13] [mm]	inhibition in vivo at 2.5 mg/kg [1, 14] [%]	inhibition in vivo at 5 mg/kg [1, 15] [%]	inhibition in vivo at 10 mg/kg [1, 16] [%]	inhibition in vivo at 2.5 mg/kg [1, 17] [%]	inhibition in vivo at 5 mg/kg [1, 18] [%]	inhibition in vivo at 10 mg/kg [1, 19] [%]	other results
COc1ccc2cc([C@H](C)C(=O)NC(=S)Nc3ccc(F)cc3)ccc2c1 [Compound 1, (S)-N-((4-fluorophenyl)carbamothioyl)-2-(6-methoxynaphthalen-2-yl)propanamide]	34.2 ± 1.04	19.2 ± 0.96	6.50 ± 0.40	6.50 ± 0.40	6.20 ± 0.30	5.53 ± 0.29	7.00 ± 0.10	6.50 ± 0.17	5.8 ± 0.20	5.27 ± 0.29	7.03 ± 0.12	6.60 ± 0.10	6.10 ± 0.17	5.27 ± 0.50	20.3	-7.22	-5.84	11.1	3.45	1.92	inhibition in vivo at 2.5 mg/kg [1, 20]: 10.5%; inhibition in vivo at 5 mg/kg [1, 21]: 23.3%; inhibition in vivo at 10 mg/kg [1, 22]: 10.5%; inhibition in vivo at 2.5 mg/kg [1, 23]: 33.3%; inhibition in vivo at 5 mg/kg [1, 24]: 40.2%; inhibition in vivo at 10 mg/kg [1, 25]: 44.8%; inhibition at 10 µM (COX-2): 24.7 ± 1.11%
COc1ccc(NC(=S)NC(=O)[C@@H](C)c2ccc3cc(OC)ccc3c2)cc1 [Compound 2, (S)-2-(6-methoxynaphthalen-2-yl)-N-((4-methoxyphenyl)carbamothioyl)propanamide]	25.1 ± 1.83	39.8 ± 1.98	6.57 ± 1.16	6.07 ± 0.72	5.77 ± 0.42	5.30 ± 0.26	7.03 ± 0.47	6.40 ± 0.53	5.70 ± 0.20	5.53 ± 0.29	6.5 ± 0.40	6.17 ± 0.67	5.53 ± 0.15	5.33 ± 0.25	9.28	6.53	23	21.8	24.9	29.5	inhibition in vivo at 2.5 mg/kg [1, 20]: 23.3%; inhibition in vivo at 5 mg/kg [1, 21]: 48.9%; inhibition in vivo at 10 mg/kg [1, 22]: 50.7%; inhibition in vivo at 2.5 mg/kg [1, 23]: 35.6%; inhibition in vivo at 5 mg/kg [1, 24]: 47.1%; inhibition in vivo at 10 mg/kg [1, 25]: 51.7%; inhibition at 10 µM (COX-2): 18.8 ± 4.37%
CCOc1ccc(NC(=S)NC(=O)[C@@H](C)c2ccc3cc(OC)ccc3c2)cc1 [Compound 3, (S)-N-((4-ethoxyphenyl)carbamothioyl)-2-(6-methoxynaphthalen-2-yl)propanamide]	47 ± 4.32	9.52 ± 1.51	6.25 ± 0.21	6.0 ± 0.57	5.50 ± 0.42	5.10 ± 0.14	6.40 ± 0.79	5.73 ± 0.38	5.44 ± 0.28	4.97 ± 0.42	6.23 ± 0.25	5.80 ± 0.26	5.27 ± 0.15	4.67 ± 0.38	19.6	6.53	3.78	21.8	26.4	12.6	inhibition in vivo at 2.5 mg/kg [1, 20]: 34.2%; inhibition in vivo at 5 mg/kg [1, 21]: 28.6%; inhibition in vivo at 10 mg/kg [1, 22]: 25.1%; inhibition in vivo at 2.5 mg/kg [1, 23]: 44.7%; inhibition in vivo at 5 mg/kg [1, 24]: 42.5%; inhibition in vivo at 10 mg/kg [1, 25]: 47 to 54%; inhibition at 10 µM (COX-2): 23.4 ± 0.57%
COc1cccc(NC(=S)NC(=O)[C@@H](C)c2ccc3cc(OC)ccc3c2)c1 [Compound 4, (S)-2-(6-methoxynaphthalen-2-yl)-N-((3-methoxyphenyl)carbamothioyl)propanamide]	77.2 ± 0.26	0.3 ± 0.12	5.93 ± 0.25	5.40 ± 0.10	5.17 ± 0.15	4.90 ± 0.10	6.10 ± 0.44	5.97 ± 0.25	5.70 ± 0.46	5.22 ± 0.50	6.00 ± 0.10	5.70 ± 0.20	5.30 ± 0.17	4.90 ± 0.20	21.6	29.9	27.1	37.2	28	32.6	inhibition in vivo at 2.5 mg/kg [1, 20]: 37.9%; inhibition in vivo at 5 mg/kg [1, 21]: 28.8%; inhibition in vivo at 10 mg/kg [1, 22]: 41.5%; inhibition in vivo at 2.5 mg/kg [1, 23]: 40.5%; inhibition in vivo at 5 mg/kg [1, 24]: 43.2%; inhibition in vivo at 10 mg/kg [1, 25]: 54%; inhibition at 10 µM (COX-2): 37.71 ± 0.28%
